± gives the expanded uncertainty stated by the source.
Conditions: Liquid, Pycnometric method

c1ccc2c(c1)ccc1ccccc12 [phenanthrene]
molar volume (377.69 K, 2049 kPa): 0.0001679 ± 1.1e-07 m3/mol | molar volume (377.69 K, 4049 kPa): 0.0001677 ± 1.1e-07 m3/mol | molar volume (377.69 K, 6049 kPa): 0.0001674 ± 1.1e-07 m3/mol | molar volume (377.69 K, 8049 kPa): 0.0001672 ± 1.1e-07 m3/mol | molar volume (377.69 K, 10049 kPa): 0.000167 ± 1.1e-07 m3/mol | molar volume (385.54 K, 2049 kPa): 0.0001688 ± 1.1e-07 m3/mol | molar volume (385.54 K, 4049 kPa): 0.0001686 ± 1.1e-07 m3/mol | molar volume (385.54 K, 6049 kPa): 0.0001683 ± 1.1e-07 m3/mol | molar volume (385.54 K, 8049 kPa): 0.0001681 ± 1.1e-07 m3/mol | molar volume (385.54 K, 10049 kPa): 0.0001679 ± 1.1e-07 m3/mol | molar volume (393.38 K, 2049 kPa): 0.0001698 ± 1.1e-07 m3/mol | molar volume (393.38 K, 4049 kPa): 0.0001696 ± 1.1e-07 m3/mol | molar volume (393.38 K, 6049 kPa): 0.0001692 ± 1.1e-07 m3/mol | molar volume (393.38 K, 8049 kPa): 0.000169 ± 1.1e-07 m3/mol | molar volume (393.38 K, 10049 kPa): 0.0001689 ± 1.1e-07 m3/mol | molar volume (401.26 K, 2049 kPa): 0.0001708 ± 1.2e-07 m3/mol | molar volume (401.26 K, 4049 kPa): 0.0001705 ± 1.2e-07 m3/mol | molar volume (401.26 K, 6049 kPa): 0.0001702 ± 1.2e-07 m3/mol | molar volume (401.26 K, 8049 kPa): 0.00017 ± 1.2e-07 m3/mol | molar volume (401.26 K, 10049 kPa): 0.0001698 ± 1.2e-07 m3/mol | molar volume (409.13 K, 2049 kPa): 0.0001717 ± 1.2e-07 m3/mol | molar volume (409.13 K, 4049 kPa): 0.0001715 ± 1.2e-07 m3/mol | molar volume (409.13 K, 6049 kPa): 0.0001712 ± 1.2e-07 m3/mol | molar volume (409.13 K, 8049 kPa): 0.000171 ± 1.2e-07 m3/mol | molar volume (409.13 K, 10049 kPa): 0.0001709 ± 1.2e-07 m3/mol | molar volume (417.06 K, 2049 kPa): 0.0001728 ± 1.2e-07 m3/mol | molar volume (417.06 K, 4049 kPa): 0.0001726 ± 1.2e-07 m3/mol | molar volume (417.06 K, 6049 kPa): 0.0001723 ± 1.2e-07 m3/mol | molar volume (417.06 K, 8049 kPa): 0.0001719 ± 1.2e-07 m3/mol | molar volume (417.06 K, 10049 kPa): 0.0001718 ± 1.2e-07 m3/mol | molar volume (424.84 K, 2049 kPa): 0.0001738 ± 1.3e-07 m3/mol | molar volume (424.84 K, 4049 kPa): 0.0001735 ± 1.3e-07 m3/mol | molar volume (424.84 K, 6049 kPa): 0.0001732 ± 1.3e-07 m3/mol | molar volume (424.84 K, 8049 kPa): 0.0001729 ± 1.3e-07 m3/mol | molar volume (424.84 K, 10049 kPa): 0.0001727 ± 1.3e-07 m3/mol

— the NIST ThermoML archive (doi:10.1021/je101058b)
